The text below walks through data of publication PMC7614687, “Modulation of the substrate specificity of the kinase PDK1 by distinct conformations of the full-length protein*” (Science signaling, 2023).

The term EC50 denotes the concentration giving half of the maximal effect.

One assay concerns the target T1, GST-PDK1_1-556 (Homo sapiens, UniProt O15530).
T1 construct: made in house; host or cells: HEK293 cells (transient transfection of pEBG2T); peptide synthesized by Pepscan
T1 sequence (O15530 1-556): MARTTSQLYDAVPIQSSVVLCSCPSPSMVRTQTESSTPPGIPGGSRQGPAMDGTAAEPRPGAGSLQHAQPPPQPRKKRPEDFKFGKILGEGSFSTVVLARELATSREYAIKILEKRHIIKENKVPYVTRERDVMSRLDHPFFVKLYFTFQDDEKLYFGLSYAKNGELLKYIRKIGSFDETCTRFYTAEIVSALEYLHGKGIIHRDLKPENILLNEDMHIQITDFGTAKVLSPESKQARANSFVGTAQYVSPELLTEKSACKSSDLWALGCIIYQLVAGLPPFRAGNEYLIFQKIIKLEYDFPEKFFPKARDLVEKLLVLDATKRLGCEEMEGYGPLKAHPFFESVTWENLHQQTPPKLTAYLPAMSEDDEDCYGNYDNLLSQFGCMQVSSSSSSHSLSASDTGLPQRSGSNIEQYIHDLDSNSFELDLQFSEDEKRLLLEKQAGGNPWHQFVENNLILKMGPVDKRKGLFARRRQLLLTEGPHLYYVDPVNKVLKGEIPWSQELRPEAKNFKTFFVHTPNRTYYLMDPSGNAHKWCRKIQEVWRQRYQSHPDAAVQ
Put plainly: AlphaScreen GST-PDK1_1-556 / biotin-PIFtide interaction. Type of assay: binding. On the procedure: The AlphaScreen® assay was performed following the general guidelines from the manufacturer (Perkin Elmer) ([29]). In short, the assay was performed in a final volume of 25 μl in white 384-well microtiter plates (Greiner) in a standard buffer containing 50 mM Tris-HCl (pH 7.4), 100 mM NaCl, 2 mM DTT, 0.01% (v/v) Tween-20 and 0.1% (w/v) BSA, with the addition of 5 μl of beads (anti-GST coated acceptor beads and streptavidin-coated donor beads; nickel chelate-coated acceptor beads and streptavidin-coated donor beads; or nickel chelate-coated acceptor beads and GSH-coated donor beads, 20 μg/ml final concentrations for each bead type). AlphaScreen assays for His-tagged proteins and GST-fusion proteins were performed using nickel chelate-coated acceptor beads and GSH-coated donor beads; alphascreen assays for His-tagged proteins and biotinylated molecules were performed using nickel chelate-coated acceptor beads and streptavidin-coated donor beads; alphascreen assays for GST-fusion proteins and biotinylated molecules were performed using anti-GST coated acceptor beads and streptavidin-coated donor beads (Perkin Elmer).
The interaction between GST-PDK1_1-556 and biotin-PIFtide was performed as described previously ([29], [32]) in the standard buffer, but the bead concentration was lowered to 15 μg/ml.
A general note: Alpha assays give light when donor and acceptor beads are brought close together.

Another assay deals with T2, SNAP-PDK1 (Homo sapiens, UniProt O15530).
T2 construct: SNAP-PDK1_50-556 (15 μM, in buffer Tris-HCl 50 mM pH 7.4); His (N); made in house; host or cells: insect cells
T2 sequence (O15530 50-556): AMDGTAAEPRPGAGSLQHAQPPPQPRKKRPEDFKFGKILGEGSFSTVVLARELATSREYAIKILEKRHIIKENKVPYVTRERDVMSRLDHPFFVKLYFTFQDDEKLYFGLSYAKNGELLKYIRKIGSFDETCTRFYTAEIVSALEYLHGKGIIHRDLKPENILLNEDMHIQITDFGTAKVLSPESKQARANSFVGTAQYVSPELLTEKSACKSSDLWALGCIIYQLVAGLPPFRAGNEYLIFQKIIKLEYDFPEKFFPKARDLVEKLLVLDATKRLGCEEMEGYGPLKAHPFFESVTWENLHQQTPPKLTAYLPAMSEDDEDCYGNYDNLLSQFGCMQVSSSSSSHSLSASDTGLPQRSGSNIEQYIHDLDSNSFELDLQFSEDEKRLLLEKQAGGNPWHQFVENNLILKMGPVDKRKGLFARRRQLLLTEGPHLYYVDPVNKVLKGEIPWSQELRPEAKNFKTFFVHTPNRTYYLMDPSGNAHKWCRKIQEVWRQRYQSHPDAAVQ
The assay can be described thus: STORM-based single particle fluorescence of PDK1 monomers and dimers. The following applies: 15 μM HYG8. On the procedure:
SNAP-PDK1_50-556 (15 μM, in buffer Tris-HCl 50 mM pH 7.4, 200 mM NaCl, 200 mM imidazole and 1 mM DTT) was incubated with SNAP-Cell TMR-Star substrate (NEB) (30 μM) in the dark at room temperature for 1 h. Labelled SNAP-PDK1 was isolated by gel filtration using a PD MidiTrap G-25 Sephadex Column (GE). 10 μl labelled TMR-SNAP-PDK1 was diluted in buffer 50 mM Tris-HCl 50 mM pH 7.4 containing 100 mM NaCl and 1 mM DTT (control) or in the same buffer containing 15 μM HYG8 in a final volume of 20 μl. […] The slides were analysed using stochastic optical reconstruction microscopy (STORM) technology. Fluorescence from monomers was differentiated from that from dimers by the intensity of the fluorescence signals. […]
The STORM microscope used was custom-built around an OlympusIX-73 inverted microscope, as described previously ([96]). A 532 nm 1.5 W laser (Laser Quantum Ventus 532) was used for fluorescence excitation of TMR-Star. […] Images were recorded by an EMCCD camera (Andor iXon3 897). […] After calibration, the parameters selected in the STORM’s software were: shape, two color 120X; view, single; horizontal readout rate, 5.0 MHz; speed, 3.3 μs; clock voltage, normal; frame transfer mode, (select); set exposure time, 100 ms, real exposure time, 100 ms; real accumulation time, 102 ms; effective frame rate, 9.38 Hz; pre amplifier gain 5.1; electron multiplier gain, 30; laser power, 5 mW. […]

For the compound `O=C(O[C@H]1[C@@H](OP(=O)(O)O)[C@H](OP(=O)(O)O)[C@@H](OP(=O)(O)O)[C@H](OP(=O)(O)O)[C@H]1OP(=O)(O)O)c1ccccc1` [HYG8, 2-O-benzoyl-IP5], on GST-PDK1_1-556 (approximate, read-out: EC50, increase of GST-PDK1_1-556 binding to PIFtide), the EC50 was approximately 2.4 nM. The “fold increase of binding of GST-PDK1_1-556 to PIFtide” value at GST-PDK1_1-556 (different experiments) was 3-4 fold. The “effect on proportion of PDK1 dimers” value at SNAP-PDK1 is listed as “decreased the proportion of PDK1 dimers”.
